Assay: Excipient compatibility study, stressed storage, impurities by HPLC
Assay type: physicochemical
Procedure: Compound A Content/Purity using HPLC. A high performance liquid chromatography (HPLC) method utilizing a reverse phase C18 column coupled to an ultraviolet (UV) detector has been developed for the identification, bulk content, assay, CUPMD and impurities analysis of formulations of Compound A. The reverse phase column is equilibrated to 40° C. and the autosampler is set to 5° C. The mobile phases, 10 mM ammonium acetate with 0.1% TFA (mobile phase A) and acetonitrile (mobile phase B) are used in a gradient elution from a ratio of 70:30 (A:B) to 0:100 (A:B), over the course of a 20 minute run time. Detection is by UV at 260 nm and the injection volume is 30 μL. Compound A content in powders are quantified relative to a standard curve. Formula strength can be determined by measuring the amount of Compound A in the bulk powder with HPLC, then dividing the measured amount by the nominal amount of Compound A in the powder. A formula strength of a dry powder disclosed herein may be between about 90% and about 105%, e.g., about 93%, about 94%, about 95%, about 96%, about 97%, about 98%, about 99%, about 100%, about 101%, or about 102%.
The spray dried Compound A formulations were exposed to stressed storage conditions for up to two weeks to assess the potential for excipient-induced degradation. The powders were added to 4 mL vials and exposed to 60° C./30% RH, 70° C./10% RH and 80° C./50% RH. Testing for impurities occurred at t=0, t=3 days, t=7 days and t=14 days for samples held at 60° C./30% RH and 70° C./10% RH and at t=0, t=3 days and t=7 days for samples held at 80° C./50% RH. Control samples including Formulation VI, comprising 50% micronized Compound A, 45% sodium chloride, and 5% polysorbate 80 as well as as-received micronized Compound A were included in an attempt to decouple particle size effects and/or the degradation potential of polysorbate 80.

## Cc1ccc(-n2nc(C(C)(C)C)cc2NC(=O)Nc2ccc(Oc3ccnc(Nc4ccccc4)n3)c3ccccc23)cc1 [Compound A, 1-(3-tert-butyl-1-p-tolyl-1H-pyrazol-5-yl)-3-(4-(2-(phenylamino)pyrimidin-4-yloxy)naphthalen-1-yl)urea]
60 C./30% RH, 3 days
  Total Impurities: 0.28 % w/w
  Total Known Impurities: 0.20 % w/w
  Total Unknown Impurities: 0.08 % w/w
60 C./30% RH, 7 days
  Total Impurities: 0.26 % w/w
  Total Known Impurities: 0.17 % w/w
  Total Unknown Impurities: 0.09 % w/w
60 C./30% RH, 14 days
  Total Impurities: 0.21 % w/w
  Total Known Impurities: 0.14 % w/w
  Total Unknown Impurities: 0.07 % w/w
70 C./10% RH, 3 days
  Total Impurities: 0.29 % w/w
  Total Known Impurities: 0.19 % w/w
  Total Unknown Impurities: 0.11 % w/w
70 C./10% RH, 7 days
  Total Impurities: 0.31 % w/w
  Total Known Impurities: 0.17 % w/w
  Total Unknown Impurities: 0.14 % w/w
70 C./10% RH, 14 days
  Total Impurities: 0.20 % w/w
  Total Known Impurities: 0.13 % w/w
  Total Unknown Impurities: 0.08 % w/w
80 C./50% RH, 3 days
  Total Impurities: 0.24 % w/w
  Total Known Impurities: 0.16 % w/w
  Total Unknown Impurities: 0.09 % w/w
80 C./50% RH, 7 days
  Total Impurities: 0.32 % w/w
  Total Known Impurities: 0.14 % w/w
  Total Unknown Impurities: 0.18 % w/w
Time point 0 days
  Total Impurities: 0.29 % w/w
  Total Known Impurities: 0.22 % w/w
  Total Unknown Impurities: 0.07 % w/w
